Source: US8841460B2, “Tunable phenylacetylene hosts” (State of Oregon, acting by and through the State Board of …, priority 2011, dated 2014)

Columns and labels:
[1] = Absorption/fluorescence response upon addition of TFA; settings: reversed by aqueous base
Text: The absorption spectra of compounds 6-8 and 10 are dominated by a characteristic pattern consisting of three peaks. There is a lack of significant spectral changes associated with conversion of diamide 8 to disulfide 10, which is not unexpected, as overall conjugation remains limited by the methylene spacer.

[2] = Photoluminescence quantum yield and Stokes shift in MeCN; type: physicochemical
Method: This example describes general materials and methods used in the synthesis and characterization of exemplary host compounds. All solvents were dried over 3 Å molecular sieves unless otherwise stated. THF, Et3N, and CH2Cl2 were respectively distilled from potassium metal and CaH2 prior to use. All other materials were obtained from TCI-America, Sigma-Aldrich, Acros and Strem and used as received. ^1H and ^13C NMR spectra were recorded using a Varian Inova 300 (^1H 299.95 MHz, ^13C 75.43 MHz) or Inova 500 (^1H 500.10 MHz, ^13C 125.75 MHz) spectrometer. Chemical shifts (δ) expressed as ppm downfield from tetramethylsilane using either the residual solvent peak as an internal standard (CDCl3 ^1H, 7.27 ppm) or using CDCl3 spiked with 1% […] for the ^1H NMR spectra. For the ^13C NMR spectra the middle CDCl3 peak (δ 77.00 ppm) was used as the internal standard. Signal patterns are indicated as b, broad; s, singlet; d, doublet; t, triplet; m, multiplet. Coupling constants (J) are given in hertz. UV-Vis spectra were recorded using a Hewlett-Packard 8453 spectrophotometer and extinction coefficients are expressed in M^−1 cm^−1. Mass spectra were recorded using an Agilent 1100 Series LC/MSD. Emission spectra were recorded on a Hitachi F-4500 fluorescence spectrophotometer. Melting points were determined with a Meltemp II apparatus or a TA Instruments DSC 2920 Modulated DSC. […]

SMILES | spectral change upon addition of TFA [1] | Quantum Yield (PLQY) [2] [%] | Stokes Shift [2] [cm⁻¹]
CC(C)(C)c1ccc2c(c1)C#Cc1cccc(n1)C#Cc1cc(C(C)(C)C)ccc1NC(=O)CSSCC(=O)N2 [disulfide 10] | conversion from a colorless solution with purple fluorescence to a deep yellow solution with yellow fluorescence | – | –
CC(C)(C)c1ccc(N)c(C#Cc2cccc(C#Cc3cc(C(C)(C)C)ccc3N)n2)c1 [Dianiline 6, 2,2′-(pyridine-2,6-diylbis(ethyne-2,1-diyl))bis(4-tert-butylaniline)] | – | 0.6 | 5270
